Data as given in ChEMBL document CHEMBL1201862, “PubChem BioAssay data set” (2004).
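Method: 48-hour compound exposure of cells in 96-well plates, five concentrations, linear interpolation of endpoints. GI50: concentration for 50% inhibition of growth.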 Active and inactive are the calls of the source. Rule as the data show it: active = GI50 up to about 1.1 µM and inactive = higher.

Assays:
Assay in all cases: DTP human tumour cell line panel, 48 h
HCC 2998 = test system: HCC 2998
TK-10 = test system: TK-10
MOLT-4 = test system: MOLT-4
RPMI-8226 = test system: RPMI-8226
HCT-15 = test system: HCT-15
NCI/ADR-RES = test system: NCI/ADR-RES
UO-31 = test system: UO-31
OVCAR-5 = test system: OVCAR-5
BT-549 = test system: BT-549
SK-MEL-5 = test system: SK-MEL-5
SK-MEL-2 = test system: SK-MEL-2
SK-OV-3 = test system: SK-OV-3
UACC-257 = test system: UACC-257
ACHN = test system: ACHN
786-0 = test system: 786-0
NCI-H522 = test system: NCI-H522
MCF7 = test system: MCF7
NCI-H226 = test system: NCI-H226
Hs-578T = test system: Hs-578T
OVCAR-8 = test system: OVCAR-8

| SMILES | GI50 (HCC 2998) | GI50 (TK-10) | GI50 (MOLT-4) | GI50 (RPMI-8226) | GI50 (HCT-15) [µM] | GI50 (NCI/ADR-RES) | GI50 (UO-31) | GI50 (OVCAR-5) | GI50 (BT-549) | GI50 (SK-MEL-5) | GI50 (SK-MEL-2) | GI50 (SK-OV-3) | GI50 (UACC-257) | GI50 (ACHN) | GI50 (786-0) | GI50 (NCI-H522) | GI50 (MCF7) | GI50 (NCI-H226) | GI50 (Hs-578T) | GI50 (OVCAR-8) |
| --- | --- | --- | --- | --- | --- | --- | --- | --- | --- | --- | --- | --- | --- | --- | --- | --- | --- | --- | --- | --- |
| O=C1CCCc2cc3c(cc21)CC1(C3)Cc2cc3c(cc2C1)C(=O)CCC3 | 2.34 µM (inactive) | 1.81 µM (inactive) | 1 µM (active) | 0.746 µM (active) | 0.662 | 0.769 µM (active) | 5.55 µM (inactive) | 4.54 µM (inactive) | 0.653 µM (active) | 0.532 µM (active) | 1.57 µM (inactive) | 3.52 µM (inactive) | 2.28 µM (inactive) | 2.86 µM (inactive) | 2.58 µM (inactive) | 0.679 µM (active) | 0.484 µM (active) | 2.7 µM (inactive) | 2.64 µM (inactive) | 3.04 µM (inactive) |
| Nc1nc(Cl)cc(NCC2(CO)CCC2)n1 | > 100 µM (inactive) | > 100 µM (inactive) | > 100 µM (inactive) | > 100 µM (inactive) | > 100 | > 100 µM (inactive) | > 100 µM (inactive) | > 100 µM (inactive) | > 100 µM (inactive) | > 100 µM (inactive) | > 100 µM (inactive) | > 100 µM (inactive) | > 10 µM (inactive) | > 100 µM (inactive) | > 100 µM (inactive) | > 100 µM (inactive) | > 100 µM (inactive) | > 100 µM (inactive) | > 100 µM (inactive) | > 100 µM (inactive) |
| CC(C)=NOC(=O)CNC(=O)C(Cc1ccccc1)NC(=O)C(C)NC(=O)OC(C)(C)C (stereo not drawn) | > 100 µM (inactive) | > 100 µM (inactive) | > 100 µM (inactive) | > 100 µM (inactive) | > 100 | > 100 µM (inactive) | > 100 µM (inactive) | > 100 µM (inactive) | > 100 µM (inactive) | > 100 µM (inactive) | > 100 µM (inactive) | > 100 µM (inactive) | > 100 µM (inactive) | > 100 µM (inactive) | > 100 µM (inactive) | > 100 µM (inactive) | > 100 µM (inactive) | > 100 µM (inactive) | > 100 µM (inactive) | > 100 µM (inactive) |
| O=C(Nc1nc(C23CC4CC(CC(C4)C2)C3)cs1)c1cc2cc(Br)cc(Br)c2oc1=O | 75.7 µM (inactive) | > 100 µM (inactive) | 50.1 µM (inactive) | 67.9 µM (inactive) | > 100 | > 100 µM (inactive) | > 100 µM (inactive) | > 100 µM (inactive) | > 100 µM (inactive) | > 100 µM (inactive) | 51.5 µM (inactive) | > 100 µM (inactive) | > 100 µM (inactive) | > 100 µM (inactive) | 32.9 µM (inactive) | > 100 µM (inactive) | > 100 µM (inactive) | 33.2 µM (inactive) | 27.4 µM (inactive) | 34.4 µM (inactive) |
| NC(=S)NS(=O)(=O)c1ccc(Cl)cc1 | > 100 µM (inactive) | > 100 µM (inactive) | > 100 µM (inactive) | > 100 µM (inactive) | > 100 | > 100 µM (inactive) | – | > 100 µM (inactive) | > 100 µM (inactive) | > 100 µM (inactive) | > 100 µM (inactive) | > 100 µM (inactive) | > 100 µM (inactive) | > 100 µM (inactive) | > 100 µM (inactive) | > 100 µM (inactive) | > 100 µM (inactive) | > 100 µM (inactive) | > 100 µM (inactive) | > 100 µM (inactive) |
| CCOC(=O)c1sc(=S)n(-c2ccc(Cl)cc2)c1-n1cc(-c2ccccc2)c(C#N)c1N | 34.2 µM (inactive) | 11.3 µM (inactive) | > 100 µM (inactive) | 26.5 µM (inactive) | 42.8 | 16.9 µM (inactive) | – | > 100 µM (inactive) | 23.7 µM (inactive) | 16.3 µM (inactive) | 20.4 µM (inactive) | 16.9 µM (inactive) | 41.4 µM (inactive) | 16.7 µM (inactive) | 11 µM (inactive) | 3.32 µM (inactive) | 15.7 µM (inactive) | 13.6 µM (inactive) | 4.19 µM (inactive) | 12.1 µM (inactive) |
| CCOC(=O)C(=O)C(CCC(=O)c1ccc2ccccc2c1O)C(=O)OCC (stereo not drawn) | > 100 µM (inactive) | – | > 100 µM (inactive) | > 100 µM (inactive) | > 100 | > 100 µM (inactive) | > 100 µM (inactive) | > 100 µM (inactive) | > 100 µM (inactive) | > 100 µM (inactive) | > 100 µM (inactive) | > 100 µM (inactive) | > 100 µM (inactive) | > 100 µM (inactive) | > 100 µM (inactive) | > 100 µM (inactive) | > 100 µM (inactive) | 38.5 µM (inactive) | > 100 µM (inactive) | > 100 µM (inactive) |
| N#Cc1c(N)nc(Sc2ccccc2N)c(C#N)c1-c1ccc(Cl)cc1 | 9.73 µM (inactive) | 13.7 µM (inactive) | 1.37 µM (inactive) | 2.61 µM (inactive) | 7.4 | 6.4 µM (inactive) | 2.79 µM (inactive) | 27.1 µM (inactive) | 4.21 µM (inactive) | 12.6 µM (inactive) | 5.14 µM (inactive) | 12 µM (inactive) | 15.9 µM (inactive) | 10.7 µM (inactive) | 6.98 µM (inactive) | 11.6 µM (inactive) | 7.05 µM (inactive) | 37.2 µM (inactive) | 7.26 µM (inactive) | 9.12 µM (inactive) |
| Cc1ccc(C)n1-n1c(-c2ccccc2)n[nH]c1=O | 87.7 µM (inactive) | > 100 µM (inactive) | > 100 µM (inactive) | > 100 µM (inactive) | > 100 | > 100 µM (inactive) | > 100 µM (inactive) | > 100 µM (inactive) | > 100 µM (inactive) | > 100 µM (inactive) | > 100 µM (inactive) | > 100 µM (inactive) | > 100 µM (inactive) | > 100 µM (inactive) | > 100 µM (inactive) | > 100 µM (inactive) | > 100 µM (inactive) | > 100 µM (inactive) | > 100 µM (inactive) | > 100 µM (inactive) |
| CS(=O)(=O)C(=Cc1ccccc1Cl)S(C)(=O)=O | > 100 µM (inactive) | > 100 µM (inactive) | > 100 µM (inactive) | > 100 µM (inactive) | > 100 | > 100 µM (inactive) | > 100 µM (inactive) | > 100 µM (inactive) | > 100 µM (inactive) | > 92 µM (inactive) | > 100 µM (inactive) | > 100 µM (inactive) | > 100 µM (inactive) | > 100 µM (inactive) | > 100 µM (inactive) | > 100 µM (inactive) | > 40.3 µM (inactive) | > 100 µM (inactive) | > 91.2 µM (inactive) | > 100 µM (inactive) |
| C=CCc1c(Cl)nc(Cl)nc1Cl | 0.832 µM (active) | 1.08 µM (active) | 0.0102 µM (active) | 0.301 µM (active) | 0.0873 | 0.853 µM (active) | 0.0748 µM (active) | 0.678 µM (active) | 0.0474 µM (active) | 0.0818 µM (active) | 0.478 µM (active) | 1.32 µM (inactive) | 0.641 µM (active) | 0.346 µM (active) | 0.0918 µM (active) | < 0.0191 µM (active) | 0.185 µM (active) | 0.0421 µM (active) | 0.368 µM (active) | 0.274 µM (active) |
| CSC1=C(C)S/C(=C\c2ccc(/C=C3\SC(C)=C(SC)S3)cc2)S1 | > 100 µM (inactive) | 89.3 µM (inactive) | > 100 µM (inactive) | – | > 100 | > 100 µM (inactive) | > 100 µM (inactive) | > 100 µM (inactive) | > 100 µM (inactive) | > 100 µM (inactive) | > 100 µM (inactive) | > 100 µM (inactive) | > 100 µM (inactive) | > 100 µM (inactive) | > 100 µM (inactive) | > 100 µM (inactive) | > 100 µM (inactive) | 92.5 µM (inactive) | 83 µM (inactive) | > 100 µM (inactive) |
| COC(=O)CNC(=O)c1cc(C)cc2c1Oc1c(cc(C)cc1C(=O)NCC(=O)OC)S2 | 38.5 µM (inactive) | > 100 µM (inactive) | 62.2 µM (inactive) | 40 µM (inactive) | 53.1 | > 100 µM (inactive) | – | > 100 µM (inactive) | > 100 µM (inactive) | – | > 100 µM (inactive) | 56 µM (inactive) | 49.5 µM (inactive) | 25.6 µM (inactive) | 39.4 µM (inactive) | 89.7 µM (inactive) | 98.9 µM (inactive) | > 100 µM (inactive) | 65.6 µM (inactive) | > 100 µM (inactive) |
| O=C1CC[N+]2=Cc3ccccc3O[B-]2(c2ccccc2)O1 (stereo not drawn) | > 100 µM (inactive) | > 100 µM (inactive) | > 100 µM (inactive) | > 100 µM (inactive) | > 100 | > 100 µM (inactive) | > 100 µM (inactive) | > 100 µM (inactive) | > 100 µM (inactive) | 97.7 µM (inactive) | > 100 µM (inactive) | > 100 µM (inactive) | > 100 µM (inactive) | > 100 µM (inactive) | > 100 µM (inactive) | > 100 µM (inactive) | > 100 µM (inactive) | > 100 µM (inactive) | > 100 µM (inactive) | > 100 µM (inactive) |
| Cc1ccc2c(=O)cc(-c3cccc(F)c3)[nH]c2n1 | 0.0586 µM (active) | 1.94 µM (inactive) | 0.0542 µM (active) | 0.0397 µM (active) | 0.0381 | 0.0196 µM (active) | – | 0.0564 µM (active) | 0.0348 µM (active) | 0.0206 µM (active) | 0.0398 µM (active) | 0.0403 µM (active) | 0.0395 µM (active) | 0.0514 µM (active) | 0.0446 µM (active) | 0.0188 µM (active) | 0.0334 µM (active) | 0.0336 µM (active) | 0.0237 µM (active) | 0.0638 µM (active) |
